From US10570129B2 (Zoetis Services LLC, priority 2015, dated 2020)

What was measured:
D. immitis microfilariae = assay: Dirofilaria immitis, microfilariae (DiMF) in vitro motility assay; assay type: cell-based; conditions: Dirofilaria immitis, 72 h, read-out: DiMF minimally effective dose (MEC)
Haemonchus contortus L3 = assay: microbe, parasite or virus in culture; assay type: cell-based; conditions: Haemonchus contortus, 96 h, read-out: HcL3 Minimal Effective Concentration (MEC)

O=C(NCc1cnc(Cl)s1)n1c2c(c3cc(OC(F)(F)F)ccc31)CN(C/C=C/c1ccc(Cl)cc1)CC2 [Example 409, (E)-2-(3-(4-chlorophenyl)allyl)-N-((2-chlorothiazol-5-yl)methyl)-8-(trifluoromethoxy)-1,2,3,4-tetrahydro-5H-pyrido[4,3-b]indole-5-carboxamide]
minimal effective concentration (D. immitis microfilariae): 10 µM | minimal effective concentration (Haemonchus contortus L3): 1 µM

O=C(NCc1ccnc(Cl)c1)n1c2c(c3cc(C(F)(F)F)ccc31)CN(C/C=C/c1ccc(Cl)c(F)c1)CC2 [Example 410, (E)-2-(3-(4-chloro-3-fluorophenyl)allyl)-N-((2-chloropyridin-4-yl)methyl)-8-(trifluoromethyl)-1,2,3,4-tetrahydro-5H-pyrido[4,3-b]indole-5-carboxamide]
minimal effective concentration (D. immitis microfilariae): 10 µM | minimal effective concentration (Haemonchus contortus L3): 1.8 µM

N#Cc1ccc(/C=C/CN2CCc3c(c4cc(C(F)(F)F)ccc4n3C(=O)NCc3ccnc(Cl)c3)C2)cc1F [Example 411, (E)-N-((2-chloropyridin-4-yl)methyl)-2-(3-(4-cyano-3-fluorophenyl)allyl)-8-(trifluoromethyl)-1,2,3,4-tetrahydro-5H-pyrido[4,3-b]indole-5-carboxamide]
minimal effective concentration (D. immitis microfilariae): 1.8 µM | minimal effective concentration (Haemonchus contortus L3): 0.03 µM

O=C(NCc1ccnc(Cl)c1)n1c2c(c3cc(C(F)(F)F)ccc31)CN(C/C=C/c1ccc(F)cc1F)CC2 [Example 412, (E)-N-((2-chloropyridin-4-yl)methyl)-2-(3-(2,4-difluorophenyl)allyl)-8-(trifluoromethyl)-1,2,3,4-tetrahydro-5H-pyrido[4,3-b]indole-5-carboxamide]
minimal effective concentration (D. immitis microfilariae): 10 µM | minimal effective concentration (Haemonchus contortus L3): 1.8 µM

O=C(NCc1ccnc(Cl)c1)n1c2c(c3cc(C(F)(F)F)ccc31)CN(C/C=C/c1ccc(F)c(Cl)c1)CC2 [Example 413, (E)-2-(3-(3-chloro-4-fluorophenyl)allyl)-N-((2-chloropyridin-4-yl)methyl)-8-(trifluoromethyl)-1,2,3,4-tetrahydro-5H-pyrido[4,3-b]indole-5-carboxamide]
minimal effective concentration (D. immitis microfilariae): > 100 µM | minimal effective concentration (Haemonchus contortus L3): 1.8 µM

O=C(NCc1ccnc(Cl)c1)n1c2c(c3cc(C(F)(F)F)ccc31)CN(C/C=C/c1ccc(F)c(F)c1)CC2 [Example 414, (E)-N-((2-chloropyridin-4-yl)methyl)-2-(3-(3,4-difluorophenyl)allyl)-8-(trifluoromethyl)-1,2,3,4-tetrahydro-5H-pyrido[4,3-b]indole-5-carboxamide]
minimal effective concentration (D. immitis microfilariae): 10 µM | minimal effective concentration (Haemonchus contortus L3): 1 µM

O=C(NCc1ccnc(F)c1)n1c2c(c3cc(C(F)(F)F)ccc31)CN(C/C=C/c1ccc(Cl)c(F)c1)CC2 [Example 415, (E)-2-(3-(4-chloro-3-fluorophenyl)allyl)-N-((2-fluoropyridin-4-yl)methyl)-8-(trifluoromethyl)-1,2,3,4-tetrahydro-5H-pyrido[4,3-b]indole-5-carboxamide]
minimal effective concentration (D. immitis microfilariae): 12.4 µM | minimal effective concentration (Haemonchus contortus L3): 2.7 µM

N#Cc1ccc(/C=C/CN2CCc3c(c4cc(C(F)(F)F)ccc4n3C(=O)NCc3ccnc(F)c3)C2)cc1F [Example 416, (E)-2-(3-(4-cyano-3-fluorophenyl)allyl)-N-((2-fluoropyridin-4-yl)methyl)-8-(trifluoromethyl)-1,2,3,4-tetrahydro-5H-pyrido[4,3-b]indole-5-carboxamide]
minimal effective concentration (D. immitis microfilariae): 57.4 µM | minimal effective concentration (Haemonchus contortus L3): 1.8 µM

O=C(NCc1ccnc(F)c1)n1c2c(c3cc(C(F)(F)F)ccc31)CN(C/C=C/c1ccc(Cl)c(Cl)c1)CC2 [Example 422, (E)-2-(3-(3,4-dichlorophenyl)allyl)-N-((2-fluoropyridin-4-yl)methyl)-8-(trifluoromethyl)-1,2,3,4-tetrahydro-5H-pyrido[4,3-b]indole-5-carboxamide]
minimal effective concentration (D. immitis microfilariae): 18.2 µM | minimal effective concentration (Haemonchus contortus L3): 10 µM

O=C(NCc1ccnc(Cl)c1)n1c2c(c3ccc(C(F)(F)F)cc31)CN(C/C=C/c1ccc(C(F)(F)F)cc1)CC2 [Example 425, (E)-N-((2-chloropyridin-4-yl)methyl)-7-(trifluoromethyl)-2-(3-(4-(trifluoro-methyl)phenyl)allyl)-1,2,3,4-tetrahydro-5H-pyrido[4,3-b]indole-5-carboxamide]
minimal effective concentration (D. immitis microfilariae): 15.8 µM | minimal effective concentration (Haemonchus contortus L3): > 100 µM

Cc1ccc2c(c1)c1c(n2C(=O)NCc2ccnc(Cl)c2)CCN(C/C=C/c2ccc(C#N)cc2)C1 [Example 430, (E)-N-((2-chloropyridin-4-yl)methyl)-2-(3-(4-cyanophenyl)allyl)-8-methyl-1,2,3,4-tetrahydro-5H-pyrido[4,3-b]indole-5-carboxamide]
minimal effective concentration (D. immitis microfilariae): > 100 µM | minimal effective concentration (Haemonchus contortus L3): 1 µM

Cc1ccc2c(c1)c1c(n2C(=O)NCc2ccnc(Cl)c2)CCN(C/C=C/c2ccc(Cl)cc2)C1 [Example 431, (E)-2-(3-(4-chlorophenyl)allyl)-N-((2-chloropyridin-4-yl)methyl)-8-methyl-1,2,3,4-tetrahydro-5H-pyrido[4,3-b]indole-5-carboxamide]
minimal effective concentration (D. immitis microfilariae): 3.3 µM | minimal effective concentration (Haemonchus contortus L3): 1 µM

Cc1ccc2c(c1)c1c(n2C(=O)NCc2ccnc(Cl)c2)CCN(C/C=C/c2ccc(Cl)c(Cl)c2)C1 [Example 432, (E)-N-((2-chloropyridin-4-yl)methyl)-2-(3-(3,4-dichlorophenyl)allyl)-8-methyl-1,2,3,4-tetrahydro-5H-pyrido[4,3-b]indole-5-carboxamide]
minimal effective concentration (D. immitis microfilariae): 57.4 µM | minimal effective concentration (Haemonchus contortus L3): 1 µM

Cc1ccc2c(c1)c1c(n2C(=O)NCc2ccnc(Cl)c2)CCN(C/C=C/c2ccc(F)cc2)C1 [Example 433, (E)-N-((2-chloropyridin-4-yl)methyl)-2-(3-(4-fluorophenyl)allyl)-8-methyl-1,2,3,4-tetrahydro-5H-pyrido[4,3-b]indole-5-carboxamide]
minimal effective concentration (D. immitis microfilariae): 5.7 µM | minimal effective concentration (Haemonchus contortus L3): 0.5 µM

Cc1ccc2c(c1)c1c(n2C(=O)NCc2ccnc(Cl)c2)CCN(C/C=C/c2ccc(OC(F)(F)F)cc2)C1 [Example 434, (E)-N-((2-chloropyridin-4-yl)methyl)-8-methyl-2-(3-(4-(trifluoromethoxy)-phenyl)allyl)-1,2,3,4-tetrahydro-5H-pyrido[4,3-b]indole-5-carboxamide]
minimal effective concentration (D. immitis microfilariae): 5.7 µM | minimal effective concentration (Haemonchus contortus L3): 3.3 µM

Cc1ccc2c(c1)c1c(n2C(=O)NCc2ccnc(Cl)c2)CCN(C/C=C/c2ccc(C(F)(F)F)cc2)C1 [Example 435, (E)-N-((2-chloropyridin-4-yl)methyl)-8-methyl-2-(3-(4-(trifluoromethyl)-phenyl)allyl)-1,2,3,4-tetrahydro-5H-pyrido[4,3-b]indole-5-carboxamide]
minimal effective concentration (D. immitis microfilariae): 5.7 µM | minimal effective concentration (Haemonchus contortus L3): 5.7 µM

O=C(NCc1ccnc(Cl)c1)n1c2c(c3c4ccccc4ccc31)CN(C/C=C/c1ccc(Cl)cc1)CC2 [Example 436, (E)-10-(3-(4-chlorophenyl)allyl)-N-((2-chloropyridin-4-yl)methyl)-8,9,10,11-tetrahydro-7H-benzo[e]pyrido[4,3-b]indole-7-carboxamide]
minimal effective concentration (D. immitis microfilariae): 18.2 µM | minimal effective concentration (Haemonchus contortus L3): > 100 µM

O=C(NCc1ccnc(Cl)c1)n1c2c(c3ccc(Br)cc31)CN(C/C=C/c1ccc(Cl)c(F)c1)CC2 [Example 437, (E)-7-bromo-2-(3-(4-chloro-3-fluorophenyl)allyl)-N-((2-chloropyridin-4-yl)methyl)-1,2,3,4-tetrahydro-5H-pyrido[4,3-b]indole-5-carboxamide]
minimal effective concentration (D. immitis microfilariae): 10 µM | minimal effective concentration (Haemonchus contortus L3): 1 µM

N#Cc1ccc(/C=C/CN2CCc3c(c4ccc(Br)cc4n3C(=O)NCc3ccnc(Cl)c3)C2)cc1F [Example 438, (E)-7-bromo-N-((2-chloropyridin-4-yl)methyl)-2-(3-(4-cyano-3-fluorophenyl)allyl)-1,2,3,4-tetrahydro-5H-pyrido[4,3-b]indole-5-carboxamide]
minimal effective concentration (D. immitis microfilariae): 18.2 µM | minimal effective concentration (Haemonchus contortus L3): > 100 µM

O=C(NCc1ccnc(Cl)c1)n1c2c(c3ccc(Br)cc31)CN(C/C=C/c1ccc(F)c(Cl)c1)CC2 [Example 439, (E)-7-bromo-2-(3-(3-chloro-4-fluorophenyl)allyl)-N-((2-chloropyridin-4-yl)methyl)-1,2,3,4-tetrahydro-5H-pyrido[4,3-b]indole-5-carboxamide]
minimal effective concentration (D. immitis microfilariae): 18.2 µM | minimal effective concentration (Haemonchus contortus L3): 1.8 µM

O=C(NCc1ccnc(Cl)c1)n1c2c(c3ccc(Br)cc31)CN(C/C=C/c1ccc(F)c(F)c1)CC2 [Example 440, (E)-7-bromo-N-((2-chloropyridin-4-yl)methyl)-2-(3-(3,4-difluorophenyl)allyl)-1,2,3,4-tetrahydro-5H-pyrido[4,3-b]indole-5-carboxamide]
minimal effective concentration (D. immitis microfilariae): 10 µM | minimal effective concentration (Haemonchus contortus L3): 1.8 µM

N#Cc1ccc(/C=C/CN2CCc3c(c4ccc(Br)cc4n3C(=O)NCc3ccnc(Cl)c3)C2)cc1 [Example 441, (E)-7-bromo-N-((2-chloropyridin-4-yl)methyl)-2-(3-(4-cyanophenyl)allyl)-1,2,3,4-tetrahydro-5H-pyrido[4,3-b]indole-5-carboxamide]
minimal effective concentration (D. immitis microfilariae): 4.4 µM | minimal effective concentration (Haemonchus contortus L3): > 100 µM

N#Cc1ccc(/C=C/CN2CCc3c(c4c(Br)cccc4n3C(=O)NCc3ccnc(Cl)c3)C2)cc1 [Example 442, (E)-9-bromo-N-((2-chloropyridin-4-yl)methyl)-2-(3-(4-cyanophenyl)allyl)-1,2,3,4-tetrahydro-5H-pyrido[4,3-b]indole-5-carboxamide]
minimal effective concentration (D. immitis microfilariae): 10 µM | minimal effective concentration (Haemonchus contortus L3): 10 µM

O=C(NCc1ccnc(Cl)c1)n1c2c(c3ccc(Br)cc31)CN(C/C=C/c1ccc(Cl)cc1)CC2 [Example 443, (E)-7-bromo-2-(3-(4-chlorophenyl)allyl)-N-((2-chloropyridin-4-yl)methyl)-1,2,3,4-tetrahydro-5H-pyrido[4,3-b]indole-5-carboxamide]
minimal effective concentration (D. immitis microfilariae): 3.3 µM | minimal effective concentration (Haemonchus contortus L3): 0.5 µM

CSc1ccc2c(c1)c1c(n2C(=O)NCc2ccnc(Cl)c2)CCN(C/C=C/c2ccc(Cl)c(F)c2)C1 [Example 445, (E)-2-(3-(4-chloro-3-fluorophenyl)allyl)-N-((2-chloropyridin-4-yl)methyl)-8-(methylthio)-1,2,3,4-tetrahydro-5H-pyrido[4,3-b]indole-5-carboxamide]
minimal effective concentration (D. immitis microfilariae): 33 µM | minimal effective concentration (Haemonchus contortus L3): 0.5 µM
